Several values for one entry are separate records, joined by “and”; a condition that tells them apart may be missing. Identical values can stand only once. Like-named read-outs stand apart in the source and are kept apart here.
Key:
DC-3F/ADII cells [1] = assay: cells; conditions: Mesocricetus auratus, DC3F
[2] = molecular target: acyl CoA:cholesterol acyltransferase (ACAT); conditions: read-out: Ki (with respect to oleoyl-CoA); cited from earlier work
cultured macrophages = conditions: read-out: IC50, inhibition of cholesterol ester formation; cited from earlier work
DC-3F hamster lung cells = assay: Cytotoxicity toward DC-3F hamster lung cells; conditions: Mesocricetus auratus, DC3F
[3] = apparently through calcium antagonism; cited from earlier work
DC-3F/ADX cells = assay: Cytotoxicity toward DC-3F/ADX cells; assay type: cell-based, hamster
CCRF-CEM/VM-1 cells [4] = assay: Cytotoxicity toward VM-26-resistant CCRF-CEM/VM-1 cells (mutated Topo II gene); assay type: cell-based, human; conditions: Homo sapiens, CCRF-CEM, read-out: IC50 of reversing agent
CCRF-CEM cells [5] = assay: Influx of [3H]VP-16 in CCRF-CEM cells; assay type: cell-based, human; conditions: Homo sapiens, CCRF-CEM, 0.5 h, read-out: increase of VP-16 accumulation
CCRF-CEM cells [6] = assay: Two drug combination study of vinblastine and 5-N-acetylardeemin on CCRF-CEM, 72 hr, XTT assay; assay type: cell-based; conditions: Homo sapiens, Table 2, drug alone, read-out: Dm (median-effect concentration)
Description: CCRF-CEM Cell Line at 72-HR Exposure Time. Based on XTT

[7] = system: vinblastine-resistant CCRF-CEM cells (CCRF-CEM/VBL100); assay: Two drug combination study of vinblastine and 5-N-acetylardeemin on vinblastine-resistant CCRF-CEM, 72 hr, XTT assay; assay type: cell-based, human; conditions: for dose reduction in combination: 1:2000 ratio, at 98.4% inhibition; for IC50: Homo sapiens, CCRF-CEM, Table 4 (large-scale study), drug alone, read-out: Dm (median-effect concentration)
Description: Vinblastine-resistant CCRF-CEM Cell Line at 72-HR Exposure Time.
Based on XTT Assay. (large-scale study)

P388/DX leukemic cells = assay: Drug combination of adriamycin and 5-N-acetyl-ardeemin against P388/DX cell growth (XTT); assay type: cell-based; conditions: drug alone
Description: | microplate, 25,000 cell/well, N = 2.

CCRF-CEM cells [8] = assay: Intracellular accumulation of [3H]vinblastine in CCRF-CEM cells; assay type: cell-based, human; conditions: 30 μM
Protocol: (§1) *Cells were preloaded with [^3 H]
(§2) times (or without wash) with 100 ml cold medium to remove extracellular
(§3) with or without a reverse prenyl compound or an MDRreversing agent. Cells
(§4) were then separated from radioactive medium by microfuge oillayer method.
(§5) Extracellular space counts carried down # by cells (^3 HInulin space
(§6) were subtracted from the total radioactive counts.

CCRF-CEM/VLB-100 cells = assay: Intracellular accumulation of [3H]vinblastine in CCRF-CEM/VLB-100 cells; assay type: cell-based, human; conditions: 30 μM
Protocol: as §1, §2, §3, §4, §5, §6

[9] = Cytotoxicity (XTT, 72 hr) in HCT116 cells; conditions: human
Protocol: All drug exposures were for 72 hr and cytotoxicity was measured by XTT tetrazolium dye assay.

Solubility = assay type: physicochemical; conditions: at concentrations higher than […]
DC-3F/ADII cells [10] = system: DC-3F/ADII cells
CCRF-CEM/VBL100 cells [11] = assay: cells; conditions: Homo sapiens
[12] = system: vinblastine-resistant CCRF-CEM cells (CCRF-CEM/VBL100); assay: Two drug combination study of vinblastine and 5-N-acetylardeemin on vinblastine-resistant CCRF-CEM, 72 hr, XTT assay; assay type: cell-based, human; parameters: dose of drug at FA (drug alone): unit not given here; conditions: for IC50: Homo sapiens, CCRF-CEM, Table 3, drug alone, read-out: Dm (median-effect concentration); for Dose reduction index / dose of drug at FA (drug alone): Table 3
[13] = system: KBV-1 (vinblastine resistant) tumor cell lines; conditions: in words; cited from earlier work
P388/0 = assay: Survival time evaluation for BDF mice bearing P388/0; conditions: for survival time: individual mice
Description: ^a Male BDF mice were inoculated with p388/0, 10E6 cells/mouse, I.P.

P388/DX = assay: Survival time evaluation for BDF mice bearing P388/DX; conditions: for survival time: individual mice
CCRF/VM-1 cells = assay: Intracellular accumulation of VP-16 in CCRF/VM-1 cells; conditions: Homo sapiens, 0.5 h, read-out: increase of VP-16 accumulation
CCRF-CEM cells [14] = assay: Cytotoxicity / growth inhibition of CCRF-CEM leukemic cells; conditions: Homo sapiens
CCRF-CEM cells [15] = assay: Accumulation of VP-16 in CCRF-CEM cells preloaded with [3H]VP-16; conditions: Homo sapiens, 0.5 h, read-out: increase of intracellular accumulation of VP-16
P388 leukemic cells = assay: Drug combination of adriamycin and 5-N-acetyl-ardeemin against P388 cell growth (XTT); conditions: Mus musculus, P388, drug alone
Description: microplate, 15,000 cell/well, N = 2. Platting cells on day 1, add drugs o
day 2 and XTT assay on day 5.

P388/O tumor = assay: Combination therapy of adriamycin & 5-N-acetyl-ardeemin or verapamil in B6D2F1 mice bearing P388/O tumor; conditions: 5NAc-Ardm 70 mg/kg;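 note: male BDF mice carrying P388/O given intraperitoneally, dosing begun on day 1 on a QDX4, QWX2 schedule, five animals per dose level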
Description: ^a Male BDF mice were inoculated P388/O, 10^6 cells/mouse, i.p. a
starting day 1, QDX4, QWX2.

P388/DX tumor = assay: Combination therapy of adriamycin & 5-N-acetyl-ardeemin or verapamil in B6D2F1 mice bearing P388/DX tumor;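 note: male BDF mice implanted intraperitoneally with P388/DX cells, 10^6 per mouse, dosed from day 1 on a QDX4, QWX2 schedule, five mice per dose group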; conditions: 5NAc-Ard. 70 mg/kg
Description: ^a Male BDF mice were inoculated P388/DX, 10^6 cells/mouse, i.p.
starting day 1, QDX4, QWX2. There were five mice at every dose and ten

CCRF-CEM cells [16] = assay: IC50 of vinblastine in CCRF-CEM with/without MDR reversing agent; assay type: cell-based; conditions: Homo sapiens, agent concentration added given in Table 6B, read-out: IC50 of VBL in the presence of reversing agent (A)
CCRF-CEM/VBL cells = assay: IC50 of vinblastine in CCRF-CEM/VBL with/without MDR reversing agent; assay type: cell-based, human
CCRF-CEM/VBL100 cells [17] = conditions: human, ccrf-cem/vbl100 vs ccrf-cem
CCRF-CEM/VM-1 cells [18] = conditions: IC50 of VBL, CCRF-CEM/VM-1 to CCRF-CEM
CCRF-CEM/VM-1 cells [19] = assay: cells; conditions: Homo sapiens, read-out: IC50 of VBL in the presence of reversing agent (C)
P388/0 tumor = assay: Combination therapy of adriamycin, vinblastine and des-Me-N-acetyl-ardeemin in B6D2F1 mice bearing P388/0 tumor; conditions: VBL 3.0 mg/kg
Protocol: ^a Male BDF mice were inoculated with P388/O, 10^6 cell/mouse,
i.p. on day 0; and started treatment on day 1, i.p., Q5Dx5, besides mice
with dose VBL 3.0 and VBL 3.0 mg/kg + DMNAA 50 mg/kg, only one injection
i.p., on day 1. There were five mice at every dose and ten in the control

[20] = read-out: IC50 for inhibiting cell growth, Table 7, DC-3F
[21] = read-out: IC50 for inhibiting cell growth, Table 7, DC-3F/SDII

## C=CC(C)(C)C12Nc3ccccc3C1(O)CC1C(=O)N3C(CC4(O)c5ccccc5NC34C(C)(C)C=C)C(=O)N12 (stereo not drawn) [Gypsetin]
DC-3F/ADII cells [1]; read-out: IC50 for inhibiting cell growth
  IC50: 2250 nM
[2]
  Ki: 5.5 µM
Cultured macrophages
  IC50: 650 nM
DC-3F hamster lung cells; [20]
  IC50: 3.78 µM

## C=CC(C)(C)[C@@]12C[C@H]3C(=O)N4[C@@H](C[C@@]5(C(C)(C)C=C)c6ccccc6N[C@@H]45)C(=O)N3[C@@H]1Nc1ccccc12 [Amauromine, amauromine]
[3]
  vasodilator activity: vasodilator

## C=CC(C)(C)C12CC3c4nc5ccccc5c(=O)n4C(C)C(=O)N3C1N(C(C)=O)c1ccccc12 (stereo not drawn) [5-N-Acetylardeemin]
DC-3F/ADX cells; DC3F/ADX, DC-3F/ADX
  IC50: 3.69 µM
DC-3F/ADX cells; IC50 ratio DC-3F/ADX to DC-3F, * collaterally sensitive
  (C)/(A): 0.49 X
CCRF-CEM/VM-1 cells [4]
  IC50: 39.4 µM
CCRF-CEM cells [5]
  activation at 30 µM: 66%
CCRF-CEM cells [6]
  IC50: 18.8 µM
[7]
  dose reduction in combination: 55 fold
  IC50: 29.8 µM
P388/DX leukemic cells
  IC50: 65.9 µM
CCRF-CEM cells [8]; washed
  [3H]vinblastine accumulation: 32.73 fmole/10^3 cells
CCRF-CEM cells [8]; without wash
  [3H]vinblastine accumulation: 37.45 fmole/10^3 cells
CCRF-CEM/VLB-100 cells; washed
  [3H]vinblastine accumulation: 12.78 fmole/10^3 cells
CCRF-CEM/VLB-100 cells; without wash
  [3H]vinblastine accumulation: 35.44 fmole/10^3 cells
[9]
  MNTC at 72 h: ≥ 2200 nM
Solubility
  solubility: diminished solubility
DC-3F/ADII cells [10]; IC50 ratio DC-3F/ADII to DC-3F, * collaterally sensitive
  (B)/(A): 2.2 X
DC-3F/ADII cells [10]; [21]
  IC50: 1590 nM
DC-3F/ADII cells [1]; read-out: IC50 (B), DC-3F/ADII
  IC50: 16800 nM
DC-3F/ADII cells [1]; [21]
  IC50: 1070 nM
CCRF-CEM/VBL100 cells [11]; Table 6, CCRF-CEM/VBL
  IC50: 6.99 µM
CCRF-CEM/VBL100 cells [11]; read-out: IC50 of reversing agent, Table 6B, CCRF-CEM/VBL
  IC50: 18.1 µM
[12]
  IC50: 19.4 µM
[12]; FA .9843
  Dose reduction index: 55.57
  dose of drug at FA (drug alone): 555.6899
[12]; FA .9861
  Dose reduction index: 61.43
  dose of drug at FA (drug alone): 614.2689
[12]; FA .9898
  Dose reduction index: 79.19
  dose of drug at FA (drug alone): 791.8969
[13]
  reversal of multidrug resistance: one of the most potent known agents for reversal of multidrug resistance
DC-3F hamster lung cells; read-out: IC50 (A), mean ± spread, mean of the determinations
  IC50: 7.51 ± 2.58 µM
DC-3F hamster lung cells; [20]
  IC50: 3.74 µM
DC-3F hamster lung cells; relative cytotoxicity, DC-3F
  IC50: 5.06 µM
P388/0; 5N-acetylardeemin 3.33 mg/kg
  % ILS: -2%
  MST: 7.25
  survival time: 6.0 and 7.0 and 8.0
P388/0; 5N-acetylardeemin 10 mg/kg
  % ILS: -10%
  MST: 6.67
  survival time: 60. and 6.5 and 7.5
P388/0; 5N-acetylardeemin 30 mg/kg
  % ILS: -16%
  MST: 6.25
  survival time: 6.0 and 6.5
P388/DX; 5N-acetylardeemin 3.33 mg/kg
  % ILS: 5%
  MST: 7.63
  survival time: 6.5 and 7.0 and 8.0 and 9.0
P388/DX; 5N-acetylardeemin 10 mg/kg
  % ILS: 2%
  MST: 7.42
  survival time: 7.0 and 7.25 and 8.0
P388/DX; 5N-acetylardeemin 30 mg/kg
  % ILS: -7%
  MST: 6.75
  survival time: 6.5 and 7.0
CCRF/VM-1 cells
  fold induction at 30 µM: 1.95
CCRF-CEM cells [14]; Table 6, CCRF-CEM
  IC50: 17.2 µM
CCRF-CEM cells [14]; human leukemic CCRF-CEM cells
  IC50: 29.8 µM
CCRF-CEM cells [14]; read-out: IC50 of reversing agent, Table 6B, CCRF-CEM
  IC50: 29.2 µM
CCRF-CEM cells [15]
  fold induction at 30 µM: 3.9
P388 leukemic cells
  IC50: 43.7 µM
P388/O tumor
  % ILS: +2%
  MST: 7.75 days
P388/O tumor; individual mice 1-5
  Days survived: 8.5 days and 7.0 days and 8.25 days and 6.5 days
P388/DX tumor
  % ILS: 0%
  MST: 7.55 days
P388/DX tumor; individual mice 1-5
  Days survived: 6.5 days and 7.25 days and 8.0 days

## CC[C@]1(O)C[C@@H]2CN(CCc3c([nH]c4ccccc34)[C@@](C(=O)OC)(c3cc4c(cc3OC)N(C)[C@H]3[C@@](O)(C(=O)OC)[C@H](OC(C)=O)[C@]5(CC)C=CCN6CC[C@]43[C@@H]65)C2)C1 [Vinblastine]
CCRF-CEM cells [6]
  IC50: 0.00168 µM
[7]
  dose reduction in combination: 41 fold
  IC50: 0.393 µM
CCRF-CEM cells [16]
  IC50: 0.83 nM
CCRF-CEM/VBL cells; Homo sapiens, CCRF-CEM, agent concentration added given in Table 6B, read-out: IC50 of VBL in the presence of reversing agent (B)
  IC50: 832 nM
CCRF-CEM/VBL cells; IC50 of VBL, CCRF-CEM/VBL to CCRF-CEM
  (b)/(a): 761
CCRF-CEM/VBL100 cells [17]
  resistance of CCRF-CEM/VBL100 compared with CCRF-CEM: 220 fold
CCRF-CEM/VM-1 cells [18]
  (C)/(A): 0.54
[12]
  IC50: 0.371 µM
[12]; FA .9843
  Dose reduction index: 41.85
  dose of drug at FA (drug alone): 2.092
[12]; FA .9861
  Dose reduction index: 22.03
  dose of drug at FA (drug alone): 2.203
[12]; FA .9898
  Dose reduction index: 10.05
  dose of drug at FA (drug alone): 2.512
CCRF-CEM/VM-1 cells [19]
  IC50: 0.45 nM
CCRF-CEM cells [14]; wild type CCRF-CEM
  IC50: 0.0017 µM
P388/0 tumor; one injection
  % ILS: +64%
P388/0 tumor; one injection, individual mice 1-5, listed as VBL
  Days survived: 5.0 days and 6.0 days and 9.5 days and 15.5 days and 16.0 days
P388/0 tumor; one injection, toxic deaths excluded
  MST: 13.67 days
P388/0 tumor; day 5 and 6
  deaths of toxicity: Two mice died of toxicity of drug

From patent US6147076A, “Analogues of N-acetylardeemin, method of preparation and uses thereof” (priority 1996, dated 2000)
